Measurements as given in US20130052134A1, “PEG-PLGA-PLL POLYMER AND METHOD FOR PREPARING AND USING THE SAME AS THE DRUG AND GENE CARRIER” (Shanghai Cancer Institute, priority 2009, published 2013).

Tested on: MDA-MB-231 mammary cancer
Test: Therapeutic test in mice bearing MDA-MB-231 mammary cancer (tumor volume)
Assay type: in vivo, nude mice
Details: tail intravenous injection once every 4 days; treatment duration 36 days
Procedure: 0.2 ml of MDA-MB-231 mammary cancer cells (2×10^5) was subcutaneously injected to the axillary region near the forelimb of nude mice, and 2 weeks later, the tumor model was successfully established.
In the therapeutic test, corresponding normal saline, free mitoxantrone, drug-loaded mPEG-PLGA-PLL nanoparticles and drug-loaded mPEG-PLGA-PLL-RGD nanoparticles were given once every 4 days through tail intravenous injection, the tumor volume was subsequently measured, and the treatment duration was 36 days.

O=C1c2c(O)ccc(O)c2C(=O)c2c(NCCNCCO)ccc(NCCNCCO)c21 [free mitoxantrone chloride, mitoxantrone chloride] gave a tumor inhibition rate of 10.32%.
